These results are taken from US6031071A, “Methods of generating novel peptides” (Biophage, Inc., priority 1996, dated 2000).

Assay [1] can be described thus: ELISA control empty wells (plastic binding). Here is the method: Phages from the second PEG precipitation (Parmley & Smith, Gene, 73: 305-318 (1988)) were dissolved in 210 μl of 0.15 M NaCl, microfuged for 1 min, precipitated from 200 μl of the supernatant by the addition of 21.2 μl of 1 M acetic acid, and by incubation for 10 min at room temperature and 10 min on ice. (Scott & Smith, Science, 249: 386-390 (1990)). Phages were sedimented (microfuged, 45 min, 4 C.) and dissolved in 60 μl of TBS. Phage concentration was determined as described in Parmley & Smith, Gene, 73: 305-318 (1988). These partially purified phages were subjected to one round of screening, except that the phages were not acid eluted. Instead, blocking solution [250 μl of nonfat dry milk ([…]) in 0,05% TWEEN20 ™/TBS (TWEEN20 ™: Polysorbate 20)] was added to the wells. After a 2-h incubation at room temperature, wells were washed three times in 0.05% TWEEN20 ™/TBS. Rabbit anti-phage fd-ted serum, 100 μl of a 1:1000 dilution (in blocking solution) was added to wells and incubated overnight. Wells were washed seven times in 0.05% TWEEN20 ™/TBS and once with TBS; 100 μl of a peroxidase-conjugated goat anti-rabbit immunoglobulin were then added (Kirkegaard & Perry Labs, Maryland, USA, diluted 1:1000). […] To reveal the reaction, 100 μl of ABTS solution (Kirkegaard & Perry Labs, Maryland, USA) were added, incubated for 30 min at room temperature, and read in a microplate reader. […]

Assay [2] in a line: ELISA of phage binding to immobilized doxo-BSA, detected with polyclonal anti-phage serum. The settings on record: result in words. Here is the method: In order to characterize the binding of individual clones, four different clones V6, V10, V12 and A4 together with the control phage X1 were analyzed for binding to doxorubicin in an ELISA experiment in which polyclonal anti-phage antibodies were used to detect bound phages. Antisera were raised against fd-Tet phage lacking insertion into pIII. Three rabbits were injected intramuscularly with 0.5 mg of fd-ted phages in Freunds complete adjuvant and then boosted three times with 0.25 mg of fd-ted phages in incomplete adjuvant at 3 weeks intervals. The titer of the antisera was measured with an ELISA using phage immobilized in Maxisorb microtiter wells as described (Motti et al., Gene, 146: 91-198 (1994)). All rabbits produced high titer antisera after the second boost. […]
Phages from the second PEG precipitation (Parmley & Smith, Gene, 73: 305-318 (1988)) were dissolved in 210 μl of 0.15 M NaCl, microfuged for 1 min, precipitated from 200 μl of the supernatant by the addition of 21.2 μl of 1 M acetic acid, and by incubation for 10 min at room temperature and 10 min on ice. […] Phage concentration was determined as described in Parmley & Smith, Gene, 73: 305-318 (1988). […] To reveal the reaction, 100 μl of ABTS solution (Kirkegaard & Perry Labs, Maryland, USA) were added, incubated for 30 min at room temperature, and read in a microplate reader. […]
(An ELISA detects its analyte on a solid surface through an enzyme-linked reagent.)

Assay [3] has as its target phage V6 (peptide V6) binding to doxorubicin. Put plainly: Displacement assay: inhibition of V6 phage binding to doxorubicin-BSA coated wells by drugs. Particulars: for IC50: read-out: IC50 for inhibiting the binding of phages V6 to doxorubicin; for blocking/displacement of the interaction of the phage with doxorubicin: result in words. Here is the method:
Phage V6 (10^10 virions) was preincubated for 1 hr at room temperature in 100 μl of 0.1% BSA/PBS buffer containing different drug concentrations (10^-4 M to 10^-9 M), and aliquots were added to microtiter wells, which were […] with doxorubicin-BSA as previously described in Example II. After a 1-h incubation at room temperature, the wells were washed 12 times with PBS and the remaining bound phages eluted with 50 μl of 0.1 M HCl (pH adjusted to 2.2 with glycine). The phages were quantitated by titration on log phase of E. coli K91Kan cells plated on LB plates with […] tetracycline (Parmley & Smith, Gene, 73: 305-318 (1988)).

Where [4] appears, read: phage V6 10^10 virions preincubated 1 hr with drug 10^-4 M to 10^-9 M, doxorubicin-BSA coated wells.

“Also recorded” adds a separate entry of the source.

As for VCDWWGWGIC [phage V6], in assay [1], the “binding of phage to plastic” value was “only background binding”. The “binding of display phage to doxorubicin (ELISA, OD405)” value in assay [2] is listed as “strong specific binding”.
For `Nc1ccn([C@@H]2O[C@H](CO)[C@@H](O)[C@@H]2O)c(=O)n1` [Ara-C], in assay [3] (setting [4]), the “IC50 for inhibiting the binding of phages V6 to doxorubicin” value is “essentially inactive”.
On to `COc1cccc2c1C(=O)c1c(O)c3c(c(O)c1C2=O)C[C@@](O)(C(=O)CO)C[C@@H]3O[C@H]1C[C@H](N)[C@H](O)[C@H](C)O1` [doxorubicin], for which, in assay [3] (setting [4]), the IC50 (usually the point on the concentration scale where inhibition reaches its midpoint) amounted to 4.5 nM. The “blocking/displacement of the interaction of the phage with doxorubicin” value in assay [3] is listed as “could be blocked”.
On the same counts, the results for `CC[C@]1(O)C[C@@H]2CN(CCc3c([nH]c4ccccc34)[C@@](C(=O)OC)(c3cc4c(cc3OC)N(C)[C@H]3[C@@](O)(C(=O)OC)[C@H](OC(C)=O)[C@]5(CC)C=CCN6CC[C@]43[C@@H]65)C2)C1` [vinblastine] are 1.5 nM and “displaced; also recorded: could be blocked”.
